Experimental data: US9889147B2 (CELLACT PHARMA GMBH, priority 2010, dated 2018)

Legend:
[1] = test system: tumours that were metastatic and/or that reduced the function of at least one organ; assay: Phase I/IIa safety/efficacy study in patients with metastatic and/or organ-function-reducing tumours
Procedure: Nine heavily pre-treated patients were recruited to a combined Phase I/IIa safety/efficacy study. The patients had tumours that were metastatic and/or that reduced the function of at least one organ.
In all patients, the tumours were clinically assessed and the history of their disease was recorded. Tumour markers were determined.
A cycle of treatment consisted of CAP7.1 administration by infusion on 5 consecutive days, followed by an intermittent period of 16 days in which no CAP7.1 was administered. […] The first cohort (patients 1-3, 8 cycles in total) received CAP7.1 at a daily dose of 45 mg/m^2, the second cohort (patients 4-6, 9 cycles in total) at a daily dose of 90 mg/m^2 and the third cohort (patients 7-9) at a daily dose of 150 mg/m^2.

[2] = Combination therapy with carboplatin in children with advanced neuroblastoma; type: in vivo, human; conditions: human; plasma, one of the children treated
Procedure: (§1) CAP7.1 was administered with carboplatin to three children with heavily pre-treated advanced neuroblastoma.
(§2) Cycles were repeated every 21 days and a total of 4 cycles were administered in each patient. Toxicity was mainly haematological, grade 1-2 at 200 mg/m^2 and increased to grade 3-4 in the rest of the cycles, but cycle delay due to toxicity was not necessary.

advanced neuroblastoma = assay: as above; type: in vivo, human
Procedure: as §1, §2

U937 cells = assay: Cell cycle analysis in multidrug-resistant U937 cells (propidium iodide); type: cell-based; conditions: 18 h, 24 h and 48 h, CAP7.1, etoposide 10^−4 mol/l
Procedure: The cells were incubated for 48 h. After 18 h, 24 h and 48 h of incubation, respectively, cell cycle analysis was performed as follows:
Cells were washed once with CellWash, fixed with fridge-cold 70% Ethanol for 30 min at 4° C. and washed three times. RNA was digested with RNAse A (100 μg/ml in PBS) for 10 min at room temperature. Cells were washed once with CellWash and stained with propidium iodide (50 μg/ml in PBS) for 5 min at room temperature in the dark. Cells were analyzed immediately by flow cytometry using a FACScanto II apparatus.

[3] = Stability in sodium phosphate buffer (negative control); type: physicochemical; conditions: sodium phosphate pH 7.4, 37° C.
Procedure: (§3) 5 μM CAP7.1 was pre-incubated for 3 min in 999 μl 0.1 mol/l) sodium phosphate (NaH2PO4, Roth, Karlsruhe, Germany) pH 7.4 at 37° C. After that, CES1, CES2 and CES3, respectively, were added. Controls were incubated with 10% foetal calf serum (FCS, positive control) or in buffer (negative control). At different time points, aliquots were subjected to HPLC in order to analyse the formed products.

NSX2 tumour xenografts = assay: NSX2 tumour xenograft model; type: in vivo; conditions: mice bearing NSX2 tumour xenografts (MDR-mediated etoposide-resistant)
Excerpt: The lack of cross-resistance to CAP7.1 of MDR-mediated etoposide-resistant cell lines in vitro was confirmed in vivo in mice bearing NSX2 tumour xenografts.

CES3 = target: T1, CES3 (Homo sapiens, UniProt Q6UWW8); assay: Conversion of CAP7.1 to etoposide by CES3 (HPLC); type: in vitro ADME; conditions: 5 μM CAP7.1, sodium phosphate pH 7.4, 37° C.
T1 sequence (Q6UWW8 27-571): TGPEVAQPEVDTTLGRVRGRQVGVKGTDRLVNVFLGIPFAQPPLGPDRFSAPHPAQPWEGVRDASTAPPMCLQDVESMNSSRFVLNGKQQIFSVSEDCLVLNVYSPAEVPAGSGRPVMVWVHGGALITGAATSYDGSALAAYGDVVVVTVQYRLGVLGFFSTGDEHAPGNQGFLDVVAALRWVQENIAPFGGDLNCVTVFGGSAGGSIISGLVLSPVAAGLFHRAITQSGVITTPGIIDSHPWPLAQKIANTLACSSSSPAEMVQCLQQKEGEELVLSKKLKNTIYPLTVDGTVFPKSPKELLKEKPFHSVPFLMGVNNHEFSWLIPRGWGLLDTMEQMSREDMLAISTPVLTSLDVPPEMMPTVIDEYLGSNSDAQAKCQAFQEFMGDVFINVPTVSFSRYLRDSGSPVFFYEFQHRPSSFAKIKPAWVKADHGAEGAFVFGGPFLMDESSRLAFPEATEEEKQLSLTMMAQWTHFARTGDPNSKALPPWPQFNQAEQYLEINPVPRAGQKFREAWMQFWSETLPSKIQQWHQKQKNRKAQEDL
Procedure: as §3

[4] = mouse, in vivo
[5] = Side effects in preclinical and clinical studies; type: in vivo
topoisomerase II β = assay: Topoisomerase II beta mRNA expression in U937 cells (PCR); type: cell-based; conditions: 10^4 mol/l, 24 h
Procedure: (§4) One of the controls involved the treatment of the cells with 0.05% (1 μl) DMSO. Untreated cells are also shown as a control.
(§5) After an incubation time of 24 h, expression was analysed by determining mRNA levels by real-time PCR. In the respective lanes of FIG. 2, the bands for topoisomerase II α (322 bp), topoisomerase II β (304 bp) and the GAPDH control (358 bp) are shown. In the H2O control lane, showing the results of the H2O control sample, no bands were observed.

topoisomerase II α = assay: Topoisomerase II alpha mRNA expression in U937 cells (PCR); type: cell-based; conditions: 24 h
Procedure: as §4, §5

Q: Which “tolerability of the therapy” value ([1]; all nine patients, 45, 90 or 150 mg/m^2 daily on 5 consecutive days per cycle) does the source give for `COc1cc([C@@H]2c3cc4c(cc3C(OC3OC5COC(C)OC5C(O)C3O)C3COC(=O)[C@@H]32)OCO4)cc(OC)c1OC(=O)OCC(O)CO` (stereo partly shown) [CAP7.1] here?
A: The value was “tolerated the therapy well without major adverse reactions”.

Q: And the “clinical response after the second cycle of treatment” value ([1]; patients 1, 3, 4, 6, 8 and 9 of nine)?
A: Its value is “stagnation of the disease”.

Q: What about the “total dose per cycle tolerated without toxicity” value ([1]; patients 1 to 6) of the same molecule?
A: Its value is 450 mg/m^2.

Q: What about the Cmax [2] of the same molecule?
A: The Cmax was 3700 ng/mL.

Q: And the half-life [2]?
A: The half-life was 12 to 30 min.

Q: And the haematological toxicity grade (advanced neuroblastoma; CAP7.1 200 mg/m^2 day 1 with carboplatin 150 mg/m^2 days 2-5)?
A: Its haematological toxicity grade is 1-2 grade.

Q: What about the haematological toxicity grade (advanced neuroblastoma; rest of the cycles (CAP7.1 400, 600 and 800 mg/m^2) with carboplatin) of the same molecule?
A: The haematological toxicity grade was 3-4 grade.

Q: What about the tumour response (advanced neuroblastoma; two of the three patients, with carboplatin) of the same molecule?
A: The tumour response was “evidences of tumour shrinkage”.

Q: And the “fraction of cells in G2 phase with increasing incubation times” value (U937 cells)?
A: The value was “increase”.

Q: And the “stability in buffer (negative control)” value [3]?
A: Its value is “stable”.

Q: What about the “tumour growth compared to control” value (NSX2 tumour xenografts) of the same molecule?
A: Its value is “clear inhibition of tumour growth”.

Q: And the “cleavage of CAP7.1 to etoposide by CES3” value (CES3)?
A: The value was “substantially no cleavage”.

Q: What about the LD10 [4] of the same molecule?
A: Its LD10 is 360 mg/m^2.

Q: What about the “side effects compared with etoposide” value [5] of the same molecule?
A: The value was “fewer side effects than etoposide”.

Q: And the “expression of topoisomerase II β (mRNA)” value (topoisomerase II β)?
A: The value was “significant decrease”.

Q: What about the “expression of topoisomerase II α (mRNA)” value (topoisomerase II α) of the same molecule?
A: The value was “significant decrease”.
